Source: ChEMBL document CHEMBL4334472, “Multi-target-directed-ligands acting as enzyme inhibitors and receptor ligands” (Eur J Med Chem, 2019)

Assays:
[1] = target: 5-hydroxytryptamine receptor 6 (Homo sapiens, UniProt P50406); test: Displacement of [3H]-LSD from recombinant human 5HT6 receptor expressed in CHOK1 cells measured after 60 mins by microbeta scintillation counting method; type: cell-based
Cholinesterase [2] = target: T1, Cholinesterase (Homo sapiens, UniProt P06276); test: Inhibition of recombinant human BChE using butyrylthiocholine iodide as substrate preincubated for 5 mins followed by substrate addition measured after 5 mins
[3] = target: Amine oxidase [flavin-containing] A (Homo sapiens, UniProt P21397); test: Inhibition of human MAOA
[4] = target: 5-hydroxytryptamine receptor 1A (Mus musculus, UniProt Q64264); test: Agonist activity at mouse 5-HT1A expressed in HEK293 cells after 2 to 5 mins; type: cell-based
Acetylcholinesterase [5] = target: Acetylcholinesterase (Rattus norvegicus, UniProt P37136); test: Inhibition of rat AChE
Butyrylcholinesterase = Butyrylcholinesterase (Rattus norvegicus, UniProt Q9JKC1); test: Inhibition of rat BChE
[6] = target: Sodium-dependent serotonin transporter (Homo sapiens, UniProt P31645); test: Inhibition of 5HTT (unknown origin)
[7] = target: Prostaglandin G/H synthase 1 (Homo sapiens, UniProt P23219); test: Inhibition of COX1 in human platelets after 30 mins by mass spectrometry analysis
[8] = target: Prostaglandin G/H synthase 2 (Homo sapiens, UniProt P35354); test: Inhibition of COX2 in lympho-monocytes (unknown origin) preincubated for 30 mins followed by LPS challenged measured after 24 hrs by EIA; type: cell-based
[9] = target: Thromboxane A2 receptor (Homo sapiens) (UniProt P21731); test: Antagonist activity at TP receptor in human washed platelet assessed as U46619 induced platelet aggregation after 6 mins; set-up: scale not given: the % may be the effect or the level left
Acetylcholinesterase [10] = target: T2, Acetylcholinesterase (Homo sapiens, UniProt P22303); test: Inhibition of recombinant human AChE using acetylthiocholine iodide as substrate preincubated for 5 mins followed by substrate addition measured after 5 mins
Acetylcholinesterase [11] = target: T2, Acetylcholinesterase; test: Inhibition of human AChE
[12] = target: Amyloid-beta precursor protein (Homo sapiens) (UniProt P05067); test: Inhibition of amyloid beta (1 to 42 residues) (unknown origin) self aggregation at 10 uM ThT-based fluorescence assay relative to control
[13] = target: Neuronal acetylcholine receptor; alpha4/beta2 (Homo sapiens, UniProt P17787+P43681); test: Inhibition of alpha4beta2 nAChR (unknown origin); type: protein-complex assay
Cholinesterase [14] = target: T1, Cholinesterase; test: Inhibition of human BChE
[15] = target: Neuronal acetylcholine receptor subunit alpha-7 (Homo sapiens, UniProt P36544); test: Inhibition of alpha7 nAChR (unknown origin)
[16] = target: Transient receptor potential cation channel subfamily V member 1 (Homo sapiens, UniProt Q8NER1); test: Inhibition of TRPV1 (unknown origin)
[17] = target: Prostaglandin G/H synthase 1 (Ovis aries, UniProt P05979); test: Inhibition of ovine COX1
[18] = target: Prostaglandin G/H synthase 2 (Ovis aries, UniProt P79208); test: Inhibition of ovine COX2
Cholinesterase [19] = target: Cholinesterase (Equus caballus, UniProt P81908); test: Inhibition of equine BChE
Histamine H3 receptor = Histamine H3 receptor (Homo sapiens, UniProt Q9Y5N1); test: Inhibition of human histamine H3 receptor
[20] = target: Amine oxidase [flavin-containing] B (Homo sapiens, UniProt P27338); test: Inhibition of human MAOB
Beta-secretase 1 = Beta-secretase 1 (Homo sapiens, UniProt P56817); test: Inhibition of BACE1 (unknown origin) using EVNLDAEF as substrate by fluorescence assay
[21] = Inhibition of nAChR (unknown origin) after 1 to 2 mins; set-up: species or system Homo sapiens
[22] = target: Muscarinic acetylcholine receptor M1 (Homo sapiens, UniProt P11229); test: Inhibition of M1R (unknown origin)

T1 sequence (P06276 whole entry): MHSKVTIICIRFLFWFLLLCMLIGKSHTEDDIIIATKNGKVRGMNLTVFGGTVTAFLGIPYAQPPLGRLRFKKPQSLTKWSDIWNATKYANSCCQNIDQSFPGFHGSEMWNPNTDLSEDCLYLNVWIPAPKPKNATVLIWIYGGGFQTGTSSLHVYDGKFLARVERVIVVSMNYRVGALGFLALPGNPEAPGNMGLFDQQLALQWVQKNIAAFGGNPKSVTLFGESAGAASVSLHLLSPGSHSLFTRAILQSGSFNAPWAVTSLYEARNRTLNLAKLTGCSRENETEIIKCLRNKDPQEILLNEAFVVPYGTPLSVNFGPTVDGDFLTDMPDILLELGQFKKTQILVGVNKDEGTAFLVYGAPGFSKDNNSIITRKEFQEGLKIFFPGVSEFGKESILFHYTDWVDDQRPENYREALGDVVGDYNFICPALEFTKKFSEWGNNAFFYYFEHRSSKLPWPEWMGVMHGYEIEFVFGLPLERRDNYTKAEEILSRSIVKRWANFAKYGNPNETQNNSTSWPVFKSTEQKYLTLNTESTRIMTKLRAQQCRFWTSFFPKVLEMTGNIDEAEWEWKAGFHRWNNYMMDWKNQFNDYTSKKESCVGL
T2 sequence (P22303 whole entry): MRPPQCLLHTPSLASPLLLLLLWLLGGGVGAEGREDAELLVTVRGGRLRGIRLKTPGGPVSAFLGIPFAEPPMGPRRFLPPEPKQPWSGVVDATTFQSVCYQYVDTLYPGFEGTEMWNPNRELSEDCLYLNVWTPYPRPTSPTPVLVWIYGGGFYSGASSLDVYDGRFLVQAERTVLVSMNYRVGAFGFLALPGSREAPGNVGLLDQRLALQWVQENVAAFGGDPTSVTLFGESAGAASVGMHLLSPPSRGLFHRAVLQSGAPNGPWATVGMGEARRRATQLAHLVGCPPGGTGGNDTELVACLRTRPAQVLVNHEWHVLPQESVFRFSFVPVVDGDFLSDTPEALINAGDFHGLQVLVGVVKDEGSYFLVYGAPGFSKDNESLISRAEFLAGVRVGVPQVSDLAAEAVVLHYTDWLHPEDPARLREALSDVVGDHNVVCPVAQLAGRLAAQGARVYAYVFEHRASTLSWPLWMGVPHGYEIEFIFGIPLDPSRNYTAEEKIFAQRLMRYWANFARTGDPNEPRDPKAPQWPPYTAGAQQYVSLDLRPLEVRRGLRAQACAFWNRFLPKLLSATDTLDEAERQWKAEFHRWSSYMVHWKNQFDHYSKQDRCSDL
Chain of Thromboxane A2 receptor (Homo sapiens) (P21731 whole entry): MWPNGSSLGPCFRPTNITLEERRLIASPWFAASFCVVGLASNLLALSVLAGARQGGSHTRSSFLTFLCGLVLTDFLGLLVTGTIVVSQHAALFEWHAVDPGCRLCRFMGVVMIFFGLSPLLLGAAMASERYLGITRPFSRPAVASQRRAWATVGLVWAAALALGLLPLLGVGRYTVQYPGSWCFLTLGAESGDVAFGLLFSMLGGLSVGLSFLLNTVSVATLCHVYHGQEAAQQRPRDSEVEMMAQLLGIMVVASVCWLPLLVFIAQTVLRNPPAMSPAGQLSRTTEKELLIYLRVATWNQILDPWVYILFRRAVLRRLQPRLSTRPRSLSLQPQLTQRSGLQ
Chain of Prostaglandin G/H synthase 2 (Homo sapiens, UniProt P35354) (P35354 whole entry): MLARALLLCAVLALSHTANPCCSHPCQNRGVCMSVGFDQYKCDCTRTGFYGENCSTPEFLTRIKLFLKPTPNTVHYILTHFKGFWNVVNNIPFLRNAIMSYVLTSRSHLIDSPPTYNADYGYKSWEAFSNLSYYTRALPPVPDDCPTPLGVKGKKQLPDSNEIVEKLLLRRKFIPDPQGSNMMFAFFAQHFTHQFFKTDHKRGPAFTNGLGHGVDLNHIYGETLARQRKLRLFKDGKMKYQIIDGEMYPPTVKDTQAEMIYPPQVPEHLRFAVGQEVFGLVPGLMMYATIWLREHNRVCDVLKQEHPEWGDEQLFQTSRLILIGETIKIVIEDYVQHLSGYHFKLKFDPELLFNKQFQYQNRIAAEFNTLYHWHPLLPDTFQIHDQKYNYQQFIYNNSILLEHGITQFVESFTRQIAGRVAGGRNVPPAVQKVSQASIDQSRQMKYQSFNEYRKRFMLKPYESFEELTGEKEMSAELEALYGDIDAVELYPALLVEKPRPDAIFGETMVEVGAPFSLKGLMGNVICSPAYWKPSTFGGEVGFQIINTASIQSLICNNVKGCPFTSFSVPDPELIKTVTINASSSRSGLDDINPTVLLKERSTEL
Chain of 5-hydroxytryptamine receptor 6 (P50406 whole entry): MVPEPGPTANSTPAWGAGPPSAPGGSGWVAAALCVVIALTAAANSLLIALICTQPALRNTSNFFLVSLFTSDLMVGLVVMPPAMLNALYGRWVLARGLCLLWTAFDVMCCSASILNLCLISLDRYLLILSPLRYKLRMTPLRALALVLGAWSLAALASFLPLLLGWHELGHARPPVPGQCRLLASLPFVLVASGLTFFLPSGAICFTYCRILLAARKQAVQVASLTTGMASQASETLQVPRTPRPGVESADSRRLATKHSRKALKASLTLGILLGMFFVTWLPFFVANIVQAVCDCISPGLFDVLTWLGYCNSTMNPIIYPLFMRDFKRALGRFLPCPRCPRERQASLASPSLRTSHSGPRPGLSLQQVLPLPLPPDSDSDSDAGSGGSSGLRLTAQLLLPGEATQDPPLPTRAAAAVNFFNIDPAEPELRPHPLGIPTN
Chain of Amyloid-beta precursor protein (Homo sapiens) (P05067 whole entry, the tested form may be a part): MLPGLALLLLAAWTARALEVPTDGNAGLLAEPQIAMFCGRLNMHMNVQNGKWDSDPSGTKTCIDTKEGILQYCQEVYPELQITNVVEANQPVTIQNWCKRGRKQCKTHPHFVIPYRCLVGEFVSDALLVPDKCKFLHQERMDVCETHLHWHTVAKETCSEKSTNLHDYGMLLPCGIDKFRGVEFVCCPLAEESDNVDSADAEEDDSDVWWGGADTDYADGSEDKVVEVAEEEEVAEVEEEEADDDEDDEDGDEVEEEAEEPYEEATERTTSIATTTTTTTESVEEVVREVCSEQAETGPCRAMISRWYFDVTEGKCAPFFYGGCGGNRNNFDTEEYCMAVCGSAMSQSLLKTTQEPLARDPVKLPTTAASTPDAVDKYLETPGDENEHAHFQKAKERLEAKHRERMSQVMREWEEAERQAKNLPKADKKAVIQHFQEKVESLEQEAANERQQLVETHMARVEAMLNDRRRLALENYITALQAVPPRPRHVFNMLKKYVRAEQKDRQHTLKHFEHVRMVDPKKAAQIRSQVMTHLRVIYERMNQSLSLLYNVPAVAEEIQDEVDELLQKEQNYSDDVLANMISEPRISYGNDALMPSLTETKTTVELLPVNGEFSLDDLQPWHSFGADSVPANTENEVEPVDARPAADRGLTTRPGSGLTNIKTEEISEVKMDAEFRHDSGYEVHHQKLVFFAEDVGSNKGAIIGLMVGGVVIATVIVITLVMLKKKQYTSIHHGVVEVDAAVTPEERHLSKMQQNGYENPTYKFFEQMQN
Chain of Prostaglandin G/H synthase 1 (Homo sapiens, UniProt P23219) (P23219 whole entry): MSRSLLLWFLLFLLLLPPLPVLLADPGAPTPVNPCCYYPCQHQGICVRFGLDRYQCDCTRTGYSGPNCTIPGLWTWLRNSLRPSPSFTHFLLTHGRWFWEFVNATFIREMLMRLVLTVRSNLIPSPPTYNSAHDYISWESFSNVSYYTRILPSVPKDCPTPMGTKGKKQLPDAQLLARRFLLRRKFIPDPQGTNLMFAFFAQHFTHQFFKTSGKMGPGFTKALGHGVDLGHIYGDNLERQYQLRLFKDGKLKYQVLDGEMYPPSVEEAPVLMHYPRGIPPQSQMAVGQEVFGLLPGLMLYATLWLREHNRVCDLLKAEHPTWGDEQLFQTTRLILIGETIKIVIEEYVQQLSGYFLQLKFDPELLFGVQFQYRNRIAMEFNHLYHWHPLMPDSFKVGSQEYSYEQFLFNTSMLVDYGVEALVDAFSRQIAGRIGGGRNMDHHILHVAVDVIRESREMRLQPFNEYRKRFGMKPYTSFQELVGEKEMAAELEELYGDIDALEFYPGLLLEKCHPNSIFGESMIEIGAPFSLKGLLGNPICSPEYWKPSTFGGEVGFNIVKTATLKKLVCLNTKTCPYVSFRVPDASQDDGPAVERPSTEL
Chain of Transient receptor potential cation channel subfamily V member 1 (Q8NER1 whole entry): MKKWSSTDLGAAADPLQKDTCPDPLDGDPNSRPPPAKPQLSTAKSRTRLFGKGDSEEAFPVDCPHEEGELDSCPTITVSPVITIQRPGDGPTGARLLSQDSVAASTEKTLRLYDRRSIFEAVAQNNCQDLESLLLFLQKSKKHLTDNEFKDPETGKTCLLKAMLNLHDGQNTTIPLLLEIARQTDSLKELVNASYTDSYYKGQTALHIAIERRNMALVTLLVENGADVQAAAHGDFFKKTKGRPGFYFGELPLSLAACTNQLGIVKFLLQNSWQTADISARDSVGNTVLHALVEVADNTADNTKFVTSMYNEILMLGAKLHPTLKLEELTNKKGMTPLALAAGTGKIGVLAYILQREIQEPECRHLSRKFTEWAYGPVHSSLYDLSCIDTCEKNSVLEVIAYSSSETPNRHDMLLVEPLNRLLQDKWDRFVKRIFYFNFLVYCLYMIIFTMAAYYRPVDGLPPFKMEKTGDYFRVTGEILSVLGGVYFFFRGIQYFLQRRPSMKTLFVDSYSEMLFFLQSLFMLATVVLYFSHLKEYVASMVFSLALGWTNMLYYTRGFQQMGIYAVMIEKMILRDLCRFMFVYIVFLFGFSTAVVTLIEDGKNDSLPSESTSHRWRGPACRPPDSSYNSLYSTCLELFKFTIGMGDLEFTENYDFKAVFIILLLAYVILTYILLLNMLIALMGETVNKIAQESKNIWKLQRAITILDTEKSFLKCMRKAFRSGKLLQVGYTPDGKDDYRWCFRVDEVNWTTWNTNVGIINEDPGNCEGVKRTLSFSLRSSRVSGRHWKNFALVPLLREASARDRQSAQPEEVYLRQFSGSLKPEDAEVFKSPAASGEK

CN(CCCN1CCN(c2cccc3c2ccn3Cc2ccccc2)CC1)Cc1ccccc1
Ki [1]: 240 nM
IC50 (Cholinesterase [2]): 196 nM

C#CCN(C)Cc1cc2cc(OCCCC3CCN(Cc4ccccc4)CC3)ccc2n1C
IC50 [3]: 0.3 nM

N#Cc1ccc2[nH]cc(CCCCN3CCN(c4c5c(nc6ccccc46)CCCC5)CC3)c2c1
EC50 [4]: 107 nM
IC50 (Acetylcholinesterase [5]): 76 nM
IC50 (Butyrylcholinesterase): 3300 nM
IC50 [6]: 15.8 nM

Cc1ccc(Nc2c(F)cccc2Cl)c(CNc2nnn[nH]2)c1
IC50 [7]: 13200 nM
IC50 [8]: 14 nM
Activity [9]: 5.6%

Cc1c(OCc2ccccc2)cccc1N1CCN(CCCCCCNc2c3c(nc4c2CCCC4)CCCC3)CC1
IC50 (Acetylcholinesterase [10]): 14 nM
Ki [1]: 18 nM
IC50 (Cholinesterase [2]): 22 nM

COc1ccccc1CN1CCN(CCCCCOc2cccc3[nH]c4ccccc4c23)CC1
IC50 (Acetylcholinesterase [11]): 2400 nM
inhibition [12]: 34%
Ki [13]: 35300 nM
IC50 (Cholinesterase [14]): 600 nM
Ki [15]: 66800 nM

COc1cc2c(cc1OC)-c1cc(OCCN3CCCCC3)nc(=O)n1CC2
IC50 (Acetylcholinesterase [11]): 5000 nM

CC[C@@H](/C=C/[C@@H](C)[C@H]1CC[C@H]2C3=CC[C@H]4C[C@@H](O)CC[C@]4(C)[C@H]3CC[C@]12C)C(C)C
IC50 [16]: 1400 nM
IC50 [17]: 16200 nM
IC50 [18]: 7800 nM

O=c1c2cc(OCCCN3CCCCC3)ccc2nc2n1CCC2
IC50 (Cholinesterase [19]): 248000 nM
IC50 (Acetylcholinesterase [11]): 5400 nM
Ki (Histamine H3 receptor): 2500 nM

O=C(c1ccc(OCCCc2cnc[nH]2)cc1)C1CC1 [CIPROXIFAN]
IC50 [20]: 1900 nM

COc1ccc2nc3c(c(NCCCCCCCCNC(=S)NC45CC6CC(CC(C6)C4)C5)c2c1)CCCC3
IC50 (Acetylcholinesterase [11]): 1600 nM
inhibition [12]: 77%
IC50 (Beta-secretase 1): 18400 nM
IC50 (Cholinesterase [14]): 300 nM
IC50 [21]: 1100 nM
IC50 [22]: 2200 nM

Cc1ccc(Nc2c(F)cccc2Cl)c(CNS(=O)(=O)C(F)(F)F)c1
IC50 [7]: 16100 nM
IC50 [8]: 400 nM
Activity [9]: 5.9%
